In patent US9499493B2, “2,4-pyrimidinediamine compounds and their uses” (Rigel Pharmaceuticals, Inc., priority 2002, dated 2016):
pIC50: −log10 of the molar value. Where a name gives a salt, the structure may show the parent alone.

Each compound was assayed on cultured human mast cells (CHMC) (assay: CHMC low cell density IgE activation: tryptase assay). Conditions: anti-IgE.
Type: cell-based
Protocol: Pellet CHMC cells (980 rpm, 10 min) and resuspend in pre-warmed MT. Add 65 ul of cells to each 96-well plate. Depending on the degranulation activity for each particular CHMC donor, load 1000-1500 cells/well. Mix four times followed by a 1 hr incubation at 37° C. […] Stimulate cells by adding 25 ul of 6× anti-IgE solution to the appropriate plates. Add 25 ul MT to un-stimulated control wells. Mix twice following addition of the anti-IgE. Incubate at 37° C. for 30 minutes. […] Spin plates at 1000 rpm for 10 min to pellet cells. Transfer 25 ul of supernatant to a 96-well black bottom plate and add 100 ul of freshly diluted tryptase substrate solution to each well. Incubate plates at room temperature for 30 min.

Compared with `CNC(=O)COc1cccc(Nc2ncc(F)c(Nc3ccc(OC)c(CO)c3)n2)c1` [R950386, N4-(3-Hydroxymethylen-4-methoxyphenyl)-5-fluoro-N2-[3-(N-methylamino)carbonylmethyleneoxyphenyl]-2,4-pyrimidinediamine], `CCOc1ccc(Nc2nc(Nc3cccc(OCC(=O)NC)c3)ncc2F)cc1N` [R950388, N4-(3-Amino-4-ethoxyphenyl)-5-fluoro-N2-[3-(N-methylamino)carbonylmethyleneoxyphenyl]-2,4-pyrimidinediamine] is 0.41 log units lower in pIC50: 6.01 for the first, 5.60 for the second.

“N2-(N-Ethylcarbonylmethyleneoxy-1,4-benzoxazin-6-yl)-5-fluoro-N2-[3-hydroxyphenyl)phenyl]pyrimidinediamine [R908734]” and “N4-(1,4-Benzoxazin-7-yl)-5-fluoro-N2-(3-hydroxyphenyl)-pyrimidinediamine [R908711]” are within 0.2 log units of each other in pIC50: 5.86 for the first, 5.75 for the second.

Work on “N4-[3-(2-(N4-(3-aminomethylenephenyl)-5-fluoro-4-pyrimidineamine)-N-methylaminomethylene)-phenyl]-5-fluoro-N2-[3-(methylaminocarbonylmethyleneoxy)phenyl]-2,4-pyrimidineamine [R940311]” yielded a pIC50 of 5.71.

Each compound was assayed on cultured human mast cells (CHMC) (assay: CHMC low cell density ionomycin activation: tryptase assay). Conditions: not given.
Type: cell-based

First: COC(=O)C(C)Oc1ccc(Nc2ncc(F)c(Nc3ccc(OC(C)C(=O)OC)cc3)n2)cc1 (racemic) [R926254, (±)-N2,N4-Bis[4-methoxycarbonyl(α-methyl)methyleneoxyphenyl]-5-fluoro-2,4-pyrimidinediamine]
Second: CNC(=O)COc1cccc(Nc2ncc(F)c(Nc3ccc(C)c(O)c3)n2)c1 [R926753, 5-Fluoro-N4-(3-hydroxy-4-methylphenyl)-N2-[3-[(N-methylamino)carbonylmethyleneoxy]phenyl]-2,4-pyrimidinediamine]
The pIC50 of the first is higher: 5.40 for the first, < 5.00 for the second. The first is the more potent here.

`CNC(=O)C1Cc2cc(Nc3ncc(F)c(Nc4cccc(OC(F)(F)F)c4)n3)ccc2O1` (racemic) [R927040, (±)-N2-[2,3-Dihydro-(N-methylamino)carbonylbenzofuran-5-yl]-5-fluoro-N4-(3-trifluoromethoxyphenyl)-2,4-pyrimidinediamine] and `CNC(=O)COc1cccc(Nc2ncc(F)c(Nc3ccc4c(c3)NCCO4)n2)c1` [R920395, N4-(1,4-Benzoxazin-6-yl)-5-fluoro-N2-[3-(N-methylamino)carbonylmethyleneoxyphenyl]-2,4-pyrimidinediamine Hydrogen Chloride Salt] cannot be ordered by pIC50: < 5.00 for the first, < 5.00 for the second.

`Cc1cc(Nc2nc(Cl)ncc2F)ccc1F` [Compound R926921] and `Cc1ccc(Nc2nc(Cl)ncc2F)cc1CNC(=O)OC(C)(C)C` [Compound R926924] cannot be ordered by pIC50: < 5.00 for the first, < 5.00 for the second.

`CNC(=O)COc1cccc(Nc2ncc(F)c(Nc3ccc4c(c3)N(C)CCO4)n2)c1` [R909259, 5-Fluoro-N2-[3-(N-methylaminocarbonylmethyleneoxy)phenyl]-N4-(N-methyl-1,4-benzoxazin-6-yl)pyrimidinediamine] and `CNC(=O)COc1cccc(Nc2ncc(F)c(Nc3ccc4c(c3)OCCO4)n2)c1` [R926816, N4-(3,4-Ethylenedioxyphenyl)-5-fluoro-N2-[3-(N-methylamino)carbonylmethyleneoxyphenyl]-2,4-pyrimidinediamine Hydrogen Chloride Salt] cannot be ordered by pIC50: < 5.00 for the first, < 5.00 for the second.

Going from `Oc1cccc(Nc2ncc(F)c(Nc3ccc4c(c3)OCCO4)n2)c1` [R925796, N4-(3,4-Ethylenedioxyphenyl)-5-fluoro-N2-(3-hydroxyphenyl)-2,4-pyrimidinediamine] to `CC(C)NC(=O)COc1cccc(Nc2ncc(F)c(Nc3ccc4c(c3)OCCO4)n2)c1` [R926830, N4-(3,4-Ethylenedioxyphenyl)-5-fluoro-N2-[3-(N-isopropylamino)carbonylmethyleneoxyphenyl]-2,4-pyrimidinediamine], the pIC50 rises from < 5.00 to 5.00.

`Oc1cccc(Nc2ncc(F)c(Nc3cccc(O)c3)n2)c1` [R926461, N2,N4-Bis(3-sodiumphenoxy)-5-fluoro-2,4-pyrimidinediamine] and `CNC(=O)COc1cc(Nc2ncc(F)c(Nc3cccc(O)c3)n2)ccc1C` [R926757, 5-Fluoro-N4-(3-hydroxyphenyl)-N2-[4-methyl-3-[(N-methylamino)carbonylmethyleneoxy]phenyl]-2,4-pyrimidinediamine] cannot be ordered by pIC50: < 5.00 for the first, < 5.00 for the second.

`O=C(c1cc2cc(Nc3ncc(F)c(Nc4ccc5c(c4)OCCO5)n3)ccc2o1)N1CCOCC1` [R926492, N4-(3,4-Ethylenedioxyphenyl)-5-fluoro-N2-[2-(N-morpholino)carbonylbenzofuran-5-yl]-2,4-pyrimidinediamine] and `O=C(c1cc2cc(Nc3ncc(F)c(Nc4ccc5c(c4)OCCO5)n3)ccc2o1)N1CCNCC1` [R926499, N4-(3,4-Ethylenedioxyphenyl)-5-fluoro-N2-[2-(N-piperazino)carbonylbenzofuran-5-yl]-2,4-pyrimidinediamine] cannot be ordered by pIC50: < 5.00 for the first, < 5.00 for the second.

`O=C(c1cc2cc(Nc3ncc(F)c(Nc4cccc(O)c4)n3)ccc2o1)N1CCNCC1` [R926500, 5-Fluoro-N4-(3-hydroxyphenyl)-N2-[2-(N-piperazino)carbonylbenzofuran-5-yl]-2,4-pyrimidinediamine] and `O=C(c1cc2cc(Nc3ncc(F)c(Nc4ccc5c(c4)OCCO5)n3)ccc2o1)N1CCCNCC1` [R926767, N4-(3,4-Ethylenedioxyphenyl)-5-fluoro-N2-[2-(N-homopiperazino)carbonylbenzofuran-5-yl]-2,4-pyrimidinediamine] cannot be ordered by pIC50: < 5.00 for the first, < 5.00 for the second.

First: O=C(COc1cccc(Nc2ncc(F)c(Nc3ccc4c(c3)OCCO4)n2)c1)N1CCNCC1 [R926504, N4-(3,4-Ethylenedioxyphenyl)-5-fluoro-N2-[3-(N-piperazino)carbonylmethyleneoxyphenyl]-2,4-pyrimidinediamine Hydrogen Chloride Salt]
Second: O=C(COc1cccc(Nc2ncc(F)c(Nc3ccc4c(c3)OCCO4)n2)c1)NC1CC1 [R926848, N2-[3-(N-Cyclopropylamino)carbonylmethyleneoxyphenyl]-N4-(3,4-ethylenedioxyphenyl)-5-fluoro-2,4-pyrimidinediamine]
The pIC50 of the first is lower: < 5.00 for the first, 5.00 for the second.

First: CCOC(=O)COc1ccc(Nc2nc(Nc3ccc(OCC(=O)OCC)cc3)c(NC(=O)NC(=O)CCl)c(C(=O)OCC)n2)cc1 [R926589, N2,N4-Bis(4-ethoxycarbonylmethyleneoxyphenyl)-6-ethoxycarbonyl-5-(chloroacetylaminocarbonylamino)-2,4-pyrimidinediamine]
Second: CNC(=O)COc1cccc(Nc2ncc(F)c(Nc3cccc4c3C(=O)N(C)C4=O)n2)c1 [R926856, 5-Fluoro-N2-[3-(N-methylamino)carbonylmethyleneoxyphenyl]-N4-(N-methylphthalimido-4-yl)-2,4-pyrimidinediamine]
The pIC50 of the first is higher: 5.00 for the first, < 5.00 for the second.

`CN(CCO)C(=O)c1cc2cc(Nc3ncc(F)c(Nc4cccc(O)c4)n3)ccc2o1` [R926725, 5-Fluoro-N4-(3-hydroxyphenyl)-N2-[2-(N-methyl-N-2-hydroxyethyl)carbonylbenzofuran-5-yl)-2,4-pyrimidinediamine] and `O=C(c1cc2cc(Nc3ncc(F)c(Nc4ccc5c(c4)OCCO5)n3)ccc2o1)N1CCCNCC1` [R926768, N4-(3,4-Ethylenedioxyphenyl)-5-fluoro-N2-[2-(N-homopiperazino)carbonylbenzofuran-5-yl]-2,4-pyrimidinediamine Hydrogen Chloride Salt] cannot be ordered by pIC50: < 5.00 for the first, < 5.00 for the second.
